Tests used:
[1] = test system: eyes of non-sighted human patients; experiment: Safety of enzymatic corneaplasty with hyaluronidase and topical 3% glyceraldehyde in two non-sighted human patients (Example 4); assay type: in vivo
Method: The two patients (Nos. 1108 and 1105) each received an intrastromal injection of 500 IU of hyaluronidase. […] Patient 1108 wore the lenses for 21 days while patient 1105 wore the lenses for 50 days.
Patient 1108 was treated according to the protocol outline above. After the 21 day lens wearing period had expired, the patient was instructed to apply two (2) drops of the 3% glyceraldehyde solution four times per day. The application of 3% glyceraldehyde continued for thirty-six (36) days after lens wear had ceased. Following termination of the 3% glyceraldehyde treatment, the patient was examined occasionally and the final examination was administered 126 days following the cessation of glyceraldehyde treatment.
This patient was treated as described above and wore the RGP lenses for 50 days. Unlike patient 1108, patient 1105 was treated with the 3% glyceraldehyde solution for one (1) month while the patient was wearing the RGP contact lenses. The 3% glyceraldehyde solution was applied four times per day for a total period of 43 days.

cornea = experiment: Corneal elasticity, recovery from indentation by spherical glass indentor (Example 7); assay type: in vivo, human
Method: A precision spherical glass indentor was used to contact the corneal surface of subjects treated with the methods of the present invention to measure changes in corneal elasticity. The method used involved the application of the indentor, in the form of a small spherical ball to gently deflect into a test cornea to establish an initial deflection value. Measurements were taken by using an interferometer to view the deflection. Following this application, the relaxation period was measured by observing the change in the impression made by the indentor.
The indentation range of movement was characterized using a precision linear variable differential transducer (LVDT) device that measured the linear travel of a stage carrying the indentor probe. The average travel distance of the probe was established at approximately 700 micrometers. The contact depth of the indentor probe was measured by evaluating the corneal surface immediately after indentation and measuring the local height values caused by the probe contact. This value was measured to range from 266 to 300 micrometers.
A digital timer was used to mark the beginning and ending times during observation. Changes in the impression were readily observed during this period. The final end point was considered to be when the local fringe disturbance was recovered blending with the undisturbed neighboring fringes. […] However, given the time scales involved, the value of this error is considered to be small.
The method of inducing corneal inflection involved first contacting the test corneal with the indentor. After the initial contact with the cornea was established, the probe was moved forward into the cornea to a predetermined distance. Seven hundred microns was used to achieve adequate deflection. Topography was taken immediately after the deflection to record the impression made in the cornea. Observations of the cornea were then made at one (1) minute intervals to note the change in the impression made. […] Another topography was done after five (5) minutes to record the final condition of the impression. […]

[2] = test system: eyes of myopic human subjects; experiment: Mild myopia study, group II: 500 IU hyaluronidase, corrective lenses, 3% glyceraldehyde (Example 9); assay type: in vivo
Source text: Given the favorable results obtained in Example 8, an additional study was undertaken to test the safety and efficacy of the method of the present invention using a larger group of subjects. In this study, a group of subjects were selected and randomly separated into three test groups to test the safety and efficacy of using hyaluronidase and a glyceraldehyde solution for treating subjects with sub-optimal visual acuity. Groups one and two received an intrastromal injection of hyaluronidase (50 and 500 IU, respectively), while group three received a control injection of saline.
Following a two week incubation period after the injection, the three groups were fitted with corrective lenses to optimize the visual acuity of the subjects. The corrective lenses were left in place for a period of time sufficient to alter the shape of the subjects' eyes so as to achieve an optimal visual acuity. This period of time was generally 2 days in length. Once an acceptable visual acuity was achieved, the subjects in the three groups received a topical 3% glyceraldehyde solution in the form of ophthalmic drops four times per day while wearing the corrective lenses. The glyceraldehyde treatment was generally administered for one month. Lens wear occurred from 8 to 12 hours during the day.
At the end of the treatment period both the lens wear and the glyceraldehyde solution administration was terminated. The general health and visual acuity of the subjects was monitored from 3 to 5 months following treatment termination.
The subjects of group II were treated as those in group I in preparation for their participation in the study reported here. Before beginning the experimental protocol, test subjects were examined initially to establish a baseline from which the future results of the treatment were compared.
Following the establishment of a baseline reading, group II subjects were fitted with contact lenses and wore the corrective lenses at night for a period of two (2) to seven (7) days or until an acceptable visual acuity (approximately 20/20) was achieved. Group II test subjects received 500 IU of hyaluronidase by injection as compared to the 50 IU of group I. Two groups of subjects received 500 IU of hyaluronidase. The results obtained from the first group are shown in Table IIIA and the results from the second group are shown in Table IIIA and are identified in the table by the notation Gr. VI. There were no meaningful differences in the treatment protocols between these two groups. Subjects achieving an acceptable visual acuity received the topical 3% glyceraldehyde solution in the form of ophthalmic drops four times per day (08:00, 12:00, 16:00, and 20:00) for a period of 1 month in conjunction with daytime lens wear for stabilization. During this period, lens were occurred for approximately 8-12 hours per day and there was no nocturnal lens wear.
The subjects were examined periodically during the glyceraldehyde treatment to monitor changes in the health of the treated eyes.
At the end of the treatment period, the stabilizing lens were removed and the administration of the 3% glyceraldehyde solution was terminated. Following termination of the treatment, the subjects were examined immediately after treatment was terminated, once a week for the first four weeks after termination, and then monthly to measure changes in the visual acuity of the treated eyes. The health of the eye was also monitored. Sequelae characterized by the appearance or worsening of serious ocular symptoms or slit-lamp findings observed during these examinations were assessed. The proportions of subjects with such findings were analyzed.

O=CC(O)CO (stereo not drawn) [glyceraldehyde]
level of SPK after termination of lens wear while continuing 3% glyceraldehyde ([1]; patient 1105): observed to decrease | level of superficial punctate keratopathy (SPK) during lens wear and 3% glyceraldehyde application ([1]; patient 1105, 500 IU hyaluronidase, RGP lenses 50 days, drops four times per day, 43 days): not observed to increase | appearance of corneas at follow-up ([1]; patient 1105, 98 days post cessation of glyceraldehyde treatment): appeared normal | appearance of corneas under slit-lamp biomicroscopy ([1]; patient 1105, within 48 hours of ceasing the 43 day glyceraldehyde treatment): appeared normal under slit-lamp biomicroscopy and were free of any SPK | effects on the stroma or the endothelial cells during glyceraldehyde treatment ([1]; patient 1108, 500 IU hyaluronidase, lenses 21 days, then 3% glyceraldehyde 2 drops four times per day, 36 days): did not indicate any deleterious effects | adverse reactions after completion of treatment ([1]; patient 1108, after the 36 day protocol up to final examination 126 days after cessation): Nor were there any adverse reactions observed | overall observable negative results ([1]; two non-sighted human patients): no observable negative results | time for cornea to recover from indentation (cornea; after about two weeks of glyceraldehyde solution drops): 20 to 30 s | change in corneal elasticity after treatment (cornea; glyceraldehyde solution drops, from more rapid indentation recovery): more elastic | UVA at follow-up after lens removal ([2]; Gr. VI subject 101, one month time point, baseline 20/200): 20/60 | UVA at follow-up after lens removal ([2]; Gr. VI subject 102, two month date, baseline 20/160): 20/20 | UVA at follow-up after lens removal ([2]; Gr. VI subject 103, two month date, baseline 20/160): 20/50 | UVA at follow-up after lens removal ([2]; Gr. VI subject 104, one month time point, baseline 20/200): 20/80 | UVA at follow-up after lens removal ([2]; Gr. VI subject 105, two month date, baseline 20/200): 20/80 | UVA at follow-up after lens removal ([2]; Gr. VI subject 106, two month date, baseline 20/160): 20/63 | UVA at follow-up after lens removal ([2]; Gr. VI subject 107, one month time point, baseline 20/60): 20/20 | overall effect on retention of orthokeratology benefits ([2]; combination of hyaluronidase (500 IU) and glyceraldehyde treatment): effective at retaining the benefits of orthokeratology | UVA at follow-up after lens removal ([2]; subject 00S/031, three month point, baseline 20/200): 20/50 | UVA at follow-up after lens removal ([2]; subject 004, four month point, baseline 20/160): 20/50 | UVA at follow-up after lens removal ([2]; subject 013, three month point, baseline 20/100): 20/40 | UVA at follow-up after lens removal ([2]; subject 017, three month point, baseline 20/50): 20/25 | UVA at follow-up after lens removal ([2]; subject 018, three month point, baseline 20/80): 20/25 | UVA at follow-up after lens removal ([2]; subject 019, three month point, baseline 20/70): 20/15 | UVA at follow-up after lens removal ([2]; subject 023, two months, baseline 20/70): 20/20 | UVA at follow-up after lens removal ([2]; subject 026, two months, baseline 20/50): 20/25 | UVA at follow-up after lens removal ([2]; subject 030, two months, baseline 20/300): 20/100 | UVA at follow-up after lens removal ([2]; subject P10/008, three month point, baseline 20/400): 20/80
